Counter-ions that a name gives are not always drawn.
Each compound was assayed on Phakopsora pachyrhizi (assay: Phakopsora pachyrhizi Test on Soybean (preventive activity, greenhouse)). Conditions: preventive spray on young Soybean plants, inoculated one day after treatment, rated 3, 7, 10 and 15 days after application, read-out: Efficacy (% control), disease severity compared to the untreated check.
Type: in vivo
Description: Compounds were dissolved in 2% dimethyl sulfoxide/acetone and then mixed with water containing an emulsifier to a calibrated spray volume of 50 mL. This 50 mL spray solution was poured into spray bottles for further applications. To test the preventive activity of compounds, healthy young Soybean plants raised in the greenhouse were sprayed with the active compound preparation at the stated application rates inside the spray cabinets using hollow cone nozzles. One day after treatment, the plants were inoculated with a spore suspension containing 2×10^5 Phakopsora pachyrhizi conidia. The inoculated plants were then kept in a greenhouse chamber at 22-24° C. temperature and 80-90% relative humidity for disease expression. A visual assessment of the compound's performance was carried out by rating the disease severity (0-100% scale) on treated plants 3, 7, 10 and 15 days after application. Efficacy (% control) of the compounds was calculated by comparing the disease rating in the treatment with the one of the untreated control. The sprayed plants were also assessed for plant compatibility by recording symptoms like necrosis, chlorosis and stunting.
For `COc1ccc(C(=O)NCc2cn3cc(-c4noc(C(F)(F)F)n4)ccc3n2)cc1` [Compound 82, 4-methoxy-N-((6-(5-(trifluoromethyl)-1,2,4-oxadiazol-3-yl)imidazo[1,2-a]pyridin-2-yl)methyl)benzamide], the pest or weed control at 500 ppm was ≥ 70%. In the case of `CN(C)C(=O)c1cn2cc(-c3noc(C(F)(F)F)n3)ccc2n1` [Compound 25, N,N-dimethyl-6-(5-(trifluoromethyl)-1,2,4-oxadiazol-3-yl)imidazo[1,2-a]pyridine-2-carboxamide], the pest or weed control at 500 ppm was ≥ 70%. For `[O-][S+](Cc1cn2cc(-c3noc(C(F)(F)F)n3)ccc2n1)c1cccc(Cl)c1` (stereo not drawn) [Compound 127, 3-(2-(((3-chlorophenyl)sulfinyl)methyl)imidazo[1,2-a]pyridin-6-yl)-5-(trifluoromethyl)-1,2,4-oxadiazole], the pest or weed control at 500 ppm was ≥ 70%. `O=C(NCc1cn2cc(-c3noc(C(F)(F)F)n3)ccc2n1)c1ccc(F)cc1` [Compound 90, 4-fluoro-N-((6-(5-(trifluoromethyl)-1,2,4-oxadiazol-3-yl)imidazo[1,2-a]pyridin-2-yl)methyl)benzamide] was tested, and the pest or weed control at 500 ppm was ≥ 70%. With `N#CC1(NC(=O)c2cn3cc(-c4noc(C(F)(F)F)n4)ccc3n2)CC1` [Compound 73, N-(1-cyanocyclopropyl)-6-(5-(trifluoromethyl)-1,2,4-oxadiazol-3-yl)imidazo[1,2-a]pyridine-2-carboxamide] the pest or weed control at 500 ppm was ≥ 70%. For `N=S(=O)(Cc1cn2ccc(-c3noc(C(F)(F)F)n3)cc2n1)c1ccc(Cl)cc1` (stereo not drawn) [Compound 166, (4-chlorophenyl)(imino)((7-(5-(trifluoromethyl)-1,2,4-oxadiazol-3-yl)imidazo[1,2-a]pyridin-2-yl)methyl)-λ^6-sulfanone], the pest or weed control at 500 ppm was ≥ 70%. With `N#Cc1ccc(NC(=O)c2cn3cc(-c4noc(C(F)(F)F)n4)ccc3n2)cc1` [Compound 27, N-(4-cyanophenyl)-6-(5-(trifluoromethyl)-1,2,4-oxadiazol-3-yl)imidazo[1,2-a]pyridine-2-carboxamide] the pest or weed control at 500 ppm was ≥ 70%. For `O=C(NCc1ccccc1)c1cn2ccc(-c3noc(C(F)(F)F)n3)cc2n1` [Compound 10, N-benzyl-7-(5-(trifluoromethyl)-1,2,4-oxadiazol-3-yl)imidazo[1,2-a]pyridine-2-carboxamide], the pest or weed control at 500 ppm was ≥ 70%. With `O=S(=O)(Cc1cn2ccc(-c3noc(C(F)(F)F)n3)cc2n1)c1ccc(F)cc1` [Compound 57, 3-(2-(((4-fluorophenyl)sulfonyl)methyl)imidazo[1,2-a]pyridin-7-yl)-5-(trifluoromethyl)-1,2,4-oxadiazole] the pest or weed control at 500 ppm was ≥ 70%. For `COC1CCN(C(=O)c2cn3cc(-c4noc(C(F)(F)F)n4)ccc3n2)C1` (stereo not drawn) [Compound 68, (3-methoxypyrrolidin-1-yl)(6-(5-(trifluoromethyl)-1,2,4-oxadiazol-3-yl)imidazo[1,2-a]pyridin-2-yl)methanone], the pest or weed control at 500 ppm was ≥ 70%. With `CC(C)CN(C)C(=O)c1cn2cc(-c3noc(C(F)(F)F)n3)ccc2n1` [Compound 78, N-isobutyl-N-methyl-6-(5-(trifluoromethyl)-1,2,4-oxadiazol-3-yl)imidazo[1,2-a]pyridine-2-carboxamide] the pest or weed control at 500 ppm was ≥ 70%. `O=C(Nc1ccccc1F)c1cn2ccc(-c3noc(C(F)(F)F)n3)cc2n1` [Compound 7, N-(2-fluorophenyl)-7-(5-(trifluoromethyl)-1,2,4-oxadiazol-3-yl)imidazo[1,2-a]pyridine-2-carboxamide] was tested, and the pest or weed control at 500 ppm was ≥ 70%. In the case of `O=C(Nc1ccc(Cl)cc1F)c1cn2cc(-c3noc(C(F)(F)F)n3)ccc2n1` [Compound 26, N-(4-chloro-2-fluorophenyl)-6-(5-(trifluoromethyl)-1,2,4-oxadiazol-3-yl)imidazo[1,2-a]pyridine-2-carboxamide], the pest or weed control at 500 ppm was ≥ 70%. With `CCOC(=O)c1cn2ccc(-c3noc(C(F)(F)F)n3)cc2n1` [Compound 45, ethyl 7-(5-(trifluoromethyl)-1,2,4-oxadiazol-3-yl)imidazo[1,2-a]pyridine-2-carboxylate hydrobromide] the pest or weed control at 500 ppm was ≥ 70%. With `O=S(=O)(Cc1cn2ccc(-c3noc(C(F)(F)F)n3)cc2n1)c1ccccc1` [Compound 58, 3-(2-((phenylsulfonyl)methyl)imidazo[1,2-a]pyridin-7-yl)-5-(trifluoromethyl)-1,2,4-oxadiazole] the pest or weed control at 500 ppm was ≥ 70%. In the case of `COc1ccccc1NC(=O)c1cn2cc(-c3noc(C(F)(F)F)n3)ccc2n1` [Compound 28, N-(2-methoxyphenyl)-6-(5-(trifluoromethyl)-1,2,4-oxadiazol-3-yl)imidazo[1,2-a]pyridine-2-carboxamide], the pest or weed control at 500 ppm was ≥ 70%. `FC(F)(F)c1nc(-c2ccc3nc(CSc4ccc(Cl)c(Cl)c4)cn3c2)no1` [Compound 110, 3-(2-(((3,4-dichlorophenyl)thio)methyl)imidazo[1,2-a]pyridin-6-yl)-5-(trifluoromethyl)-1,2,4-oxadiazole] was tested, and the pest or weed control at 500 ppm was ≥ 70%. In the case of `COc1ccc(NC(=O)c2cn3cc(-c4noc(C(F)(F)F)n4)ccc3n2)cc1` [Compound 22, N-(4-methoxyphenyl)-6-(5-(trifluoromethyl)-1,2,4-oxadiazol-3-yl)imidazo[1,2-a]pyridine-2-carboxamide], the pest or weed control at 500 ppm was ≥ 70%. For `CC(C)(C)CNC(=O)c1cn2ccc(-c3noc(C(F)(F)F)n3)cc2n1` [Compound 36, N-neopentyl-7-(5-(trifluoromethyl)-1,2,4-oxadiazol-3-yl)imidazo[1,2-a]pyridine-2-carboxamide], the pest or weed control at 500 ppm was ≥ 70%. For `COc1cccc(CNC(=O)c2cn3cc(-c4noc(C(F)(F)F)n4)ccc3n2)c1` [Compound 76, N-(3-methoxybenzyl)-6-(5-(trifluoromethyl)-1,2,4-oxadiazol-3-yl)imidazo[1,2-a]pyridine-2-carboxamide], the pest or weed control at 500 ppm was ≥ 70%. With `O=S(=O)(Cc1cn2ccc(-c3noc(C(F)(F)F)n3)cc2n1)c1ccccc1F` [Compound 59, 3-(2-(((2-fluorophenyl)sulfonyl)methyl)imidazo[1,2-a]pyridin-7-yl)-5-(trifluoromethyl)-1,2,4-oxadiazole] the pest or weed control at 500 ppm was ≥ 70%. `O=C(Nc1cccc(F)c1)c1cn2ccc(-c3noc(C(F)(F)F)n3)cc2n1` [Compound 4, N-(3-fluorophenyl)-7-(5-(trifluoromethyl)-1,2,4-oxadiazol-3-yl)imidazo[1,2-a]pyridine-2-carboxamide] was tested, and the pest or weed control at 500 ppm was ≥ 70%. In the case of `COc1ccc(CSCc2cn3cc(-c4noc(C(F)(F)F)n4)ccc3n2)cc1` [Compound 109, 3-(2-(((4-methoxybenzyl)thio)methyl)imidazo[1,2-a]pyridin-6-yl)-5-(trifluoromethyl)-1,2,4-oxadiazole], the pest or weed control at 500 ppm was ≥ 70%. `O=C(Nc1cccc(F)c1)c1cn2cc(-c3noc(C(F)(F)F)n3)ccc2n1` [Compound 24, N-(3-fluorophenyl)-6-(5-(trifluoromethyl)-1,2,4-oxadiazol-3-yl)imidazo[1,2-a]pyridine-2-carboxamide] was tested, and the pest or weed control at 500 ppm was ≥ 70%. `O=C(NCc1ccc(C(F)(F)F)cc1)c1cn2cc(-c3noc(C(F)(F)F)n3)ccc2n1` [Compound 63, 6-(5-(trifluoromethyl)-1,2,4-oxadiazol-3-yl)-N-(4-(trifluoromethyl)benzyl)imidazo[1,2-a]pyridine-2-carboxamide] was tested, and the pest or weed control at 500 ppm was ≥ 70%. For `O=C(Nc1c(F)cccc1F)c1cn2cc(-c3noc(C(F)(F)F)n3)ccc2n1` [Compound 30, N-(2,6-difluorophenyl)-6-(5-(trifluoromethyl)-1,2,4-oxadiazol-3-yl)imidazo[1,2-a]pyridine-2-carboxamide], the pest or weed control at 500 ppm was ≥ 70%. With `CN(CCOc1ccccc1)C(=O)c1cn2ccc(-c3noc(C(F)(F)F)n3)cc2n1` [Compound 14, N-methyl-N-(2-phenoxyethyl)-7-(5-(trifluoromethyl)-1,2,4-oxadiazol-3-yl)imidazo[1,2-a]pyridine-2-carboxamide] the pest or weed control at 500 ppm was ≥ 70%. For `Fc1ccc(SCc2cn3cc(-c4noc(C(F)(F)F)n4)ccc3n2)cc1` [Compound 105, 3-(2-(((4-fluorophenyl)thio)methyl)imidazo[1,2-a]pyridin-6-yl)-5-(trifluoromethyl)-1,2,4-oxadiazole], the pest or weed control at 500 ppm was ≥ 70%. With `COc1ccc(SCc2cn3cc(-c4noc(C(F)(F)F)n4)ccc3n2)cc1` [Compound 100, 3-(2-(((4-methoxyphenyl)thio)methyl)imidazo[1,2-a]pyridin-6-yl)-5-(trifluoromethyl)-1,2,4-oxadiazole] the pest or weed control at 500 ppm was ≥ 70%. `O=C(Nc1ccccc1F)c1cn2cc(-c3noc(C(F)(F)F)n3)ccc2n1` [Compound 20, N-(2-fluorophenyl)-6-(5-(trifluoromethyl)-1,2,4-oxadiazol-3-yl)imidazo[1,2-a]pyridine-2-carboxamide] was tested, and the pest or weed control at 500 ppm was ≥ 70%. `COc1cccc(NC(=O)c2cn3cc(-c4noc(C(F)(F)F)n4)ccc3n2)c1` [Compound 16, N-(3-methoxyphenyl)-6-(5-(trifluoromethyl)-1,2,4-oxadiazol-3-yl)imidazo[1,2-a]pyridine-2-carboxamide] was tested, and the pest or weed control at 500 ppm was ≥ 70%. For `O=C(NC1CCCC1)c1cn2cc(-c3noc(C(F)(F)F)n3)ccc2n1` [Compound 67, N-cyclopentyl-6-(5-(trifluoromethyl)-1,2,4-oxadiazol-3-yl)imidazo[1,2-a]pyridine-2-carboxamide], the pest or weed control at 500 ppm was ≥ 70%. `O=C(Nc1ccc(Cl)cc1)c1cn2cc(-c3noc(C(F)(F)F)n3)ccc2n1` [Compound 18, N-(4-chlorophenyl)-6-(5-(trifluoromethyl)-1,2,4-oxadiazol-3-yl)imidazo[1,2-a]pyridine-2-carboxamide] was tested, and the pest or weed control at 500 ppm was ≥ 70%.

— patent US20220151236A1, “NOVEL OXADIAZOLE COMPOUNDS FOR CONTROLLING OR PREVENTING PHYTOPATHOGENIC FUNGI” (PI INDUSTRIES LTD., priority 2019, published 2022)
